Measured values as given in article PMC6534257, “Leishmania infantum arginase: biochemical characterization and inhibition by naturally occurring phenolic substances” (Journal of Enzyme Inhibition and Medicinal Chemistry, 2019).
Converted amounts (≈) assume the structure as drawn. “And” between values parts separate entries of the source, which are not always exact repeats. Equal entries are not always repeated. “Also recorded” adds a separate entry of the source. Where two headings read alike, the source gives them in different places.

Experiments:
L. amazonensis arginase = details: cited from earlier work; for IC50: read-out: IC50 against L. amazonensis arginase; for effect on L. amazonensis arginase (in words): phenolics without catechol group ref 15; for inhibition of L. amazonensis arginase activity: final concentration of 20 μM ref 13
[1] = tested on: L. amazonensis promastigotes; details: cited from earlier work
[2] = tested on: L. infantum intracellular amastigotes; experiment: Intracellular anti-amastigote activity in infected RAW 264.7 macrophages; format: cell-based, Leishmania infantum; details: for SI AMA (selectivity index CC50/IC50, intracellular amastigotes): CC50 RAW 264.7 / IC50 intracellular amastigotes; for IC50: Leishmania infantum, RAW264.7, 48 h, read-out: Intracellular amastigotes IC50±SE
Method: (§1) The intracellular anti-amastigote activity was performed according to previously described procedures[31] with some modifications. Initially, RAW 264.7 macrophages were distributed in 96-well plates and, after adherence (incubation for 2 h), cells were washed twice with phosphate buffer saline (PBS, pH 7.2). Then, the adherent cells were infected with promastigote forms of L. infantum at the stationary phase of growth in a proportion of 10 parasites/macrophage. After 4 h of interaction at 37 °C and 5% CO2 atmosphere, free parasites were washed away with PBS and infected macrophages were incubated for another 24 h to allow differentiation into amastigotes. After this time, infected cells were treated for 48 h with increasing concentrations of the selected inhibitor. Subsequently, the culture supernatant was collected for evaluation of nitric oxide production using the Griess reaction. Cells were washed with PBS, then Schneider’s medium supplemented with 5% FBS was added and the plate was incubated at 26 °C for 72 h. The parasite survival was estimated by viability of differentiated promastigote forms recovered from the cultures using MTT (5 mg/mL). The results were expressed as the percentage of viability in relation to that obtained for the control (100%). The IC50 for amastigote forms was calculated from the dose-response curves generated from the data.

L. amazonensis = details: cited from earlier work; for reduction of lesion size and parasite burden (in words): compared with reference drug Glucantime ref 42; for mice death or loss of body weight (in words): treated BALB/c mice ref 42
[3] = tested on: L. infantum promastigotes; experiment: Inhibition of L. infantum promastigotes growth (resazurin); format: cell-based, Leishmania infantum; details: for SI PRO (selectivity index CC50/IC50, promastigotes): CC50 RAW 264.7 / IC50 promastigotes; for IC50: Leishmania infantum, read-out: Promastigotes IC50±SE; for IC50 / Promastigotes IC50±SE: 96 h, 26 °C, resazurin
Method: The parasite growth inhibition assays were performed on 96-well microplates, where the selected ARGLi inhibitors were previously diluted (1–200 μg/mL). Subsequently, promastigote forms of L. infantum collected in late logarithmic phase (96 h) were added to microplates at the final concentration of 10^6 parasites/mL. Microplates were incubated at 26 °C for 96 h. After the incubation period, parasites viability was determined using 0.005% resazurin[30]. The 50% inhibitory concentration (IC50) was determined from the dose-response curves generated from the data.

bovine hepatic arginase = tested on: bovine hepatic arginase; design: method as in PMID 27776374; details: cited from earlier work; for percentage of inhibition of bovine hepatic arginase: 100 μM ref 37
[4] = tested on: intracellular amastigotes of L. amazonensis; design: method as in PMID 24906989; details: cited from earlier work
[5] = Cytotoxicity in RAW 264.7 macrophages (MTT); format: cell-based; details: mouse, read-out: RAW 264.7 CC50±SE
Method: (§2) RAW 264.7 macrophages were cultured in polystyrene culture flasks containing DMEM medium supplemented with 10% FBS at 37 °C and 5% CO2 atmosphere. For cytotoxic evaluation, 48 h cultured cells were harvested, washed with culture medium, and distributed into 96-well culture plates at 10^5 cells/well concentration. The cells were allowed to adhere for 2 h prior to the addition of increasing inhibitor concentrations (31–1000 µg/mL). Treated cell cultures were incubated for 48 h under the same experimental conditions. After this period, cell viability was determined by colorimetric assay using MTT solution (5 mg/mL) as an indicator. The 50% cytotoxic concentration (CC50) was calculated by analysing the dose-response curves generated from the data.

[6] = tested on: BALB/c mice peritoneal macrophages; details: cited from earlier work
[7] = tested on: L. infantum-infected RAW 264.7 macrophages; experiment: Nitric oxide production by infected macrophages (Griess reaction); format: cell-based; details: for increase in nitrite levels in comparison to the control: 48 h; for effect on NO production by infected macrophages (in words): 48 h treatment
Method: as §1
In order to determine if ARGLi inhibitors were capable of modulating the host cell response, RAW 264.7 macrophages were infected with promastigote forms of L. infantum and treated with different concentrations of inhibitors for 48 h. After treatment, NO production was measured. […] This increase is similar to that observed for the reference drug Fungizone® (Figure 5(B)). The effect of caffeic acid on NO production may be a result of macrophage arginase inhibition and consequent oxidation of accumulated L-arginine by inducible NO synthase (iNOS).
Figure 5. Nitric oxide production by L. infantum-infected RAW 264.7 macrophages treated with different concentrations of ARGLi inhibitors. (A) Treatment with 3.1–200 μg/mL of rosmarinic acid (black), caffeic acid (light gray), and catechin (dark gray). (B) Treatment with 0.062–0.5 μg/mL of the reference drug fungizone. Control (white) represents the production of nitric oxide by infected and untreated macrophages. Nitrite concentration was measured by the Griess reaction and data represent mean ± SE of two independent experiments.

ARGLi = details: read-out: Km for L-arginine; 1 to 50 mM L-arginine, pH 9.5, 37 °C
Method: ARGLi (0.2 µg/mL) was incubated with L-arginine at concentrations ranging from 1 to 50 mM in 50 mM CHES buffer (pH 9.5) at 37 °C for 5 min. Vmax and Km values were determined by the analysis of the initial velocity versus substrate concentration curve using the Michaelis–Menten equation in Graph Prism 6.

[8] = tested on: axenic amastigote forms of L. donovani; design: method as in PMID 16569852; details: cited from earlier work
[9] = tested on: Leishmania infantum arginase (ARGLi); experiment: ARGLi inhibition by phenolic substances (urea production); format: biochemical; details: 100 µM substance, 50 mM L-arginine, pH 9.5, 37 °C, 5 min
RAW 264.7 macrophages = experiment: Cytotoxicity in RAW 264.7 macrophages (MTT); format: cell-based; details: 48 h
Method: as §2

[10] = infected RAW 264.7, 48 h treatment

## O=c1cc(-c2ccc(O)c(O)c2)oc2c([C@@H]3O[C@H](CO)[C@@H](O)[C@H](O)[C@H]3O)c(O)cc(O)c12 [orientin]
L. amazonensis arginase
  IC50: 16 ± 2 µM

## O=c1c(O)c(-c2ccccc2)oc2cc(O)cc(O)c12 [galangin]
L. amazonensis arginase
  IC50: 100 µM

## O=C(O)/C=C/c1ccc(O)c(O)c1 [Caffeic acid, caffeic acid]
[1]
  IC50 against L. amazonensis promastigote forms: 0.9 ± 0.2 µg/mL (≈ 5 µM)
[2]
  SI AMA (selectivity index CC50/IC50, intracellular amastigotes): 55.69
[2]; [10]
  IC50: 3.95 µg/mL and 21.9 µM
L. amazonensis
  reduction of lesion size and parasite burden (in words): more effective in reducing lesion size and parasite burden
  mice death or loss of body weight (in words): did not lead to mice death or significant loss of body weight
[3]
  SI PRO (selectivity index CC50/IC50, promastigotes): 20.05
  IC50: 11 µg/mL and 60.8 µM
Bovine hepatic arginase
  percentage of inhibition of bovine hepatic arginase: 61.3 ± 4.1%
  IC50: 86.7 µM
[4]
  IC50 for intracellular amastigotes of L. amazonensis: 2.9 ± 0.3 µg/mL
[5]; RAW 264.7 macrophages
  CC50 at 48 h: 220 µg/mL and 1.22 mM
[6]
  CC50 for BALB/c mice peritoneal macrophages: 32.5 ± 2.0 µg/mL
[7]; 100 µg/mL
  increase in nitrite levels in comparison to the control: 234.6%
[7]; 200 µg/mL
  increase in nitrite levels in comparison to the control: 311.5%
[7]
  effect on NO production by infected macrophages (in words): significantly increased nitric oxide production; also recorded: significantly increased NO production

## O=c1cc(-c2ccc(O)cc2)oc2cc(O)cc(O)c12 [apigenin]
L. amazonensis arginase
  effect on L. amazonensis arginase (in words): little effect

## N=C(N)NCCC[C@H](N)C(=O)O [L-arginine]
ARGLi
  Km: 5.1 ± 1.1 mM

## O=c1c(O[C@@H]2O[C@H](CO)[C@@H](O)[C@H](O)[C@H]2O)c(-c2ccc(O)c(O)c2)oc2cc(O)cc(O)c12 [isoquercitrin]
L. amazonensis arginase
  inhibition of L. amazonensis arginase activity: more than 50%

## O=c1cc(-c2ccc(O)c(O)c2)oc2cc(O)c([C@@H]3O[C@H](CO)[C@@H](O)[C@H](O)[C@H]3O)c(O)c12 [isoorientin]
L. amazonensis arginase
  IC50: 9 ± 1 µM

## O=c1cc(-c2ccc(O)cc2)oc2cc(O)c([C@@H]3O[C@H](CO)[C@@H](O)[C@H](O)[C@H]3O)c(O)c12 [isovitexin]
L. amazonensis arginase
  effect on L. amazonensis arginase (in words): little effect

## Oc1cc(O)c2c(c1)O[C@H](c1ccc(O)c(O)c1)[C@H](O)C2 [(−)-epicatechin]
L. amazonensis arginase
  inhibition of L. amazonensis arginase activity: more than 50%

## O=c1c(O)c(-c2ccc(O)cc2)oc2cc(O)cc(O)c12 [kaempferol, reference compound]
L. amazonensis arginase
  IC50: 50 µM
[8]
  IC50 against L. donovani: 2.9 µg/mL (≈ 10.1 µM)

## COc1ccc(/C=C/c2cc(O)cc(O[C@@H]3O[C@H](CO)[C@@H](O)[C@H](O)[C@H]3O)c2)cc1O [Rhaponticin, rhaponticin]
[3]
  IC50: > 400 µg/mL and > 1 mM
[3]; highest concentration tested
  antileishmanial activity against promastigotes (in words): did not inhibit promastigote growth at the highest concentration tested
[5]; RAW 264.7 macrophages
  CC50 at 48 h: 825 µg/mL and 1.96 mM
[9]
  percentage of inhibition of ARGLi activity: more than 50%

## O=C(/C=C/c1ccc(O)c(O)c1)O[C@H](Cc1ccc(O)c(O)c1)C(=O)O [Rosmarinic acid, rosmarinic acid]
[1]
  IC50 against L. amazonensis promastigote forms: 0.2 ± 0.1 µg/mL (≈ 0.555 µM)
[2]
  SI AMA (selectivity index CC50/IC50, intracellular amastigotes): 61.79
[2]; [10]
  IC50: 2.86 µg/mL and 7.9 µM
L. amazonensis
  reduction of lesion size and parasite burden (in words): more effective in reducing lesion size and parasite burden
  mice death or loss of body weight (in words): did not lead to mice death or significant loss of body weight
[3]
  SI PRO (selectivity index CC50/IC50, promastigotes): 8.56
  IC50: 20.6 µg/mL and 57.3 µM
[4]
  IC50 for intracellular amastigotes of L. amazonensis: 1.7 ± 0.4 µg/mL
[5]
  CC50 at 48 h: 177 µg/mL and 491 µM
[6]
  CC50 for BALB/c mice peritoneal macrophages: 33.5 ± 1.4 µg/mL
[7]
  effect on NO production by infected macrophages (in words): did not affect NO production

## O=c1cc(-c2ccc(O)c(O)c2)oc2cc(O)cc(O)c12 [luteolin]
L. amazonensis arginase
  IC50: 9 ± 1 µM

## O=c1c(O)c(-c2ccc(O)c(O)c2)oc2cc(O)ccc12 [fisetin]
L. amazonensis arginase
  IC50: 1.4 ± 0.3 µM

## O=C(/C=C/c1ccc(O)c(O)c1)O[C@@H]1C[C@](O)(C(=O)O)C[C@@H](O)[C@H]1O [Chlorogenic acid, chlorogenic acid]
L. amazonensis arginase
  inhibition of L. amazonensis arginase activity: more than 50%

## O=c1c(O)c(-c2ccc(O)c(O)c2)oc2cc(O)cc(O)c12 [Quercetin, quercetin, reference compound]
L. amazonensis arginase
  IC50: 4.3 µM
[8]
  IC50 against L. donovani: 1 µg/mL (≈ 3.31 µM)
Bovine hepatic arginase
  percentage of inhibition of bovine hepatic arginase: 64.4 ± 2.5%
  IC50: 31.2 µM
[9]
  percentage of inhibition of ARGLi activity: 67.05 ± 10.36%

## Oc1cc(O)c2c(c1)O[C@H](c1ccc(O)c(O)c1)[C@@H](O)C2 [(+)-catechin]
L. amazonensis arginase
  inhibition of L. amazonensis arginase activity: more than 50%

## O=c1cc(-c2ccc(O)cc2)oc2c([C@@H]3O[C@H](CO)[C@@H](O)[C@H](O)[C@H]3O)c(O)cc(O)c12 [vitexin]
L. amazonensis arginase
  effect on L. amazonensis arginase (in words): little effect

## COc1cc(-c2oc3cc(O)cc(O)c3c(=O)c2O)ccc1O [Isorhamnetin, isorhamnetin]
[8]
  IC50 axenic amastigote forms of L. donovani: 3.8 µg/mL
[3]
  Promastigotes IC50±SE: 258.7 ± 9.50 µg/mL
  IC50: 263 µg/mL and 818 µM
[5]
  CC50 at 48 h: > 1000 µg/mL and > 3 mM

## COc1cc(O)c2c(=O)c(O)c(-c3ccc(O)c(O)c3)oc2c1 [Rhamnetin, rhamnetin]
[8]
  IC50 axenic amastigote forms of L. donovani: 4.6 µg/mL
[3]
  Promastigotes IC50±SE: 263.2 ± 3.87 µg/mL
  IC50: 259 µg/mL and 832 µM
[5]; RAW 264.7 macrophages
  CC50 at 48 h: > 1000 µg/mL and > 3 mM
[9]
  percentage of inhibition of ARGLi activity: ~56%
[9]; listed as rhamnetin
  percentage of inhibition of ARGLi activity: more than 50%

## Oc1cc(O)c2c(c1)O[C@H](c1ccc(O)c(O)c1)[C@@H](O)C2 [Catechin, catechin, reference compound]
[1]; catechin isolated from Stryphnodendron obovatum stem bark ref 47
  IC50 for L. amazonensis promastigotes: 43.2 ± 2.1 µg/mL
[2]
  SI AMA (selectivity index CC50/IC50, intracellular amastigotes): 3.08
[2]; [10]
  IC50: 83.2 µg/mL and 287 µM
  Intracellular amastigotes IC50±SE: 83.28 ± 10.6 µg/mL
[3]
  Promastigotes IC50±SE: 114.8 ± 14.65 µg/mL
  SI PRO (selectivity index CC50/IC50, promastigotes): 2.23
  IC50: 115 µg/mL and 395 µM
RAW 264.7 macrophages
  RAW 264.7 CC50±SE: 256.98 ± 0.64 µg/mL
[5]; RAW 264.7 macrophages
  CC50 at 48 h: 257 µg/mL and 885 µM
[7]
  effect on NO production by infected macrophages (in words): did not affect NO production
[9]
  percentage of inhibition of ARGLi activity: 49.02 ± 14.92%
